Results published in patent publication US20030008857A1, “Photodynamic therapy (PDT) in combination with factors that bind cell surface apoptosis-inducing receptors” (priority 1999, published 2003).

Tests used:
Type in all cases: cell-based, human
[1] = tested on: DEVDase (caspases 3 and 7); assay: Protease assay of cell extracts with Ac-DEVD-AMC; conditions: TRAIL 20 ng/ml, 3 hours, Jurkat whole cell extracts
Procedure: (§1) The human Jurkat T cell line containing a neomycin resistance gene was obtained from Dr. Charles Rudin (University of Chicago). Cells were maintained in RPMI 1640 medium containing 10% heat-inactivated fetal calf serum (FCS) with penicillin (100 U/mL), streptomycin (100 μg/mL), 20 mM HEPES, 2 mM L-glutamine and G418 (1 μg/ml) purchased from Gibco BRL (Burlington, Ontario) in a CO2 incubator at 37° C. To elicit apoptosis with PDT, Jurkat cells were incubated with different amounts of liposomally formulated benzoporphyrin derivative monoacid ring A (BPD-MA, verteporfin, QLT PhotoTherapeutics, Inc., Vancouver, Canada) for one hour at 37° C. under light-protected conditions. The culture medium used for experiments was identical to that used for the passage of the cells except that FCS was used at a concentration of 5%. Experiments were conducted either in 6-well culture plates at 5×10^6 cells in a volume of 4 ml per well or in 96-well microtiter plates at 1×10^5 cells per well at 0.2 ml per well. […]
(§2) These sequences are denoted by letter codes for each amino acid. […] The reaction mixture was incubated at 37° C. for 1 (DEVD.AMC) or 24 (VEID.AMC and IETH.AMC) h and fluorescence was measured using an excitation at 380 nm and an emission wavelength of 460 nm with a CytoFluor™ 2350 fluorescent measuring system (Perseptive Biosystems, Burlington, Ont).

[2] = tested on: VEIDase (caspase 6); assay: Protease assay of cell extracts with Ac-VEID-AMC; conditions: TRAIL 20 ng/ml, 3 hours, Jurkat whole cell extracts
Procedure: as §1, §2

[3] = tested on: IETDase (caspase 8); assay: Protease assay of cell extracts with Ac-IETD-AMC; conditions: TRAIL 20 ng/ml, 3 hours, Jurkat whole cell extracts
Procedure: as §1, §2

[4] = tested on: cytochrome c; assay: Cytochrome c in cytosolic extracts of Jurkat cells (immunoblot)
Procedure: The human Jurkat T cell line containing a neomycin resistance gene was obtained from Dr. Charles Rudin (University of Chicago). Cells were maintained in RPMI 1640 medium containing 10% heat-inactivated fetal calf serum (FCS) with penicillin (100 U/mL), streptomycin (100 μg/mL), 20 mM HEPES, 2 mM L-glutamine and G418 (1 μg/ml) purchased from Gibco BRL (Burlington, Ontario) in a CO2 incubator at 37° C. To elicit apoptosis with PDT, Jurkat cells were incubated with different amounts of liposomally formulated benzoporphyrin derivative monoacid ring A (BPD-MA, verteporfin, QLT PhotoTherapeutics, Inc., Vancouver, Canada) for one hour at 37° C. under light-protected conditions. The culture medium used for experiments was identical to that used for the passage of the cells except that FCS was used at a concentration of 5%. Experiments were conducted either in 6-well culture plates at 5×10^6 cells in a volume of 4 ml per well or in 96-well microtiter plates at 1×10^5 cells per well at 0.2 ml per well. Cells were irradiated with light of a wavelength of 690 nm delivered at 65-73 mW/sec from light emitting diodes (LED) to achieve a total light dose of 5 J/cm^2. Cells were returned to the incubator until required for analysis.
FasL and TRAIL as used were recombinant preparations. FasL was obtained from Upstate Biotechnology (Lake Placid NY) and corresponded to amino acids 103-281 of the soluble domain of human FasL. TRAIL was obtained from BIOMOL Research Laboratories (Plymouth Meeting, Pa.) and corresponded to residues 114-281 of the soluble domain of human TRAIL. FasL and TRAIL were usually added immediately following the treatment of cells with PDT, although in one series of experiments these factors were added at 1, 2 or 3 hours post-irradiation.
To obtain cytosolic extracts, cells were treated with 0.6 ml of ice-cold buffer [250 mM sucrose, 20 mM Hepes pH 7.4, 10 mM KCl, 1.5 mM MgCl2, 1 mM EGTA, 1 mM EDTA, 1 mM dithiothreitol, 1 mM PMSF and aprotinin (10 μg/ml)]. Cells were disrupted by 20 strokes with the B pestle of a Kontes™ dounce homogenizer. Supernatant collected following centrifugation at 10000×g was further centrifuged at 100000×g for 1 h at 4° C. in a Beckman Optima™ ultracentrifuge using a TL-100 rotor. (Granville et al., “Rapid cytochrome c release, activation of caspases 3, 6, 7 and 8 followed by Bap31 cleavage in HeLa cells treated with photodynamic therapy”, FEBS Lett. 437, 5-10 (1998)).
To evaluate the activation state of different caspases and the status of other cellular proteins, whole cell lysates were separated by sodium dodecyl sulphate polyacrylamide gel electrophoresis (SDS-PAGE). […]

Row | Substance | increase in DEVDase-like activity versus control cells [1] | increase in VEIDase-like activity versus control cells [2] | increase in IETDase-like activity versus control cells [3] | cytochrome c in cytosolic extracts, factor alone ([4]; FasL 7.5 ng/ml or TRAIL 20 ng/ml, 3 hours) | cytochrome c in cytosolic extracts, factor with PDT ([4]; PDT in combination with TRAIL 20 ng/ml or FasL 7.5 ng/ml, 3 hours) | cytochrome c in cytosolic fractions, immediately versus three hours after photoirradiation ([4]; verteporfin and light 5 J/cm^2) | cytochrome c within the cytosolic fraction ([4]; verteporfin and light 5 J/cm^2, extracts prepared immediately afterward)
1 | TRAIL: recombinant, residues 114-281 of the soluble domain of human TRAIL (BIOMOL) | approximately four-fold | two-fold | two-fold | background levels of cytochrome c | readily detectable amounts of cytochrome c | – | –
2 | benzoporphyrin derivative monoacid ring A [verteporfin, reference compound] | – | – | – | – | – | comparable levels of cytochrome c | immediate appearance of cytochrome c
